This passage reports Ki results from BindingDB's records for doi:10.1021/jm00398a002 (University of Kansas, 1988).

This assay deals with Adenosylhomocysteinase (Bos taurus). Briefly: Time course of inactivation of bovine liver S-adenosyl-homocysteine hydrolase.

Molecule `Nc1ncnc2c1ncn2[C@@H]1C=C[C@@H](O)[C@H]1O` gave a Ki of 41 nM.
Next, `Nc1nccc2c1ncn2C1C=C[C@@H](O)[C@H]1O` (some centres not stated): 35 nM.
